Structures are written as SMILES.

Usually melting point stands for the temperature, or range, at which the solid turns liquid. `Cc1oc(-c2ccccc2)nc1COc1ccc(COc2ncccc2CC(=O)[O-])cc1.[Li+]`: the melting point is 207 to 209 °C.

`Cc1oc(-c2ccccc2)nc1COc1ccc(COc2ncccc2CC(=O)[O-])cc1.[K+]` registered a melting point of 157 to 159 °C.

Compound `CCOC(=O)CCc1cccc(OCc2ccc(OCc3nc(-c4ccccc4)oc3C)cc2)c1` [Example 2, ethyl 3-[3-[4-[(5-methyl-2-phenyl-4-oxazolyl)methoxy]benzyloxy]phenyl]propionate] yielded a melting point of 90 to 91 °C.

The compound `Cc1oc(-c2ccccc2)nc1COc1ccc(COc2cccc(CCC(=O)O)c2)cc1` [Example 3, 3-[3-[4-[(5-methyl-2-phenyl-4-oxazolyl)methoxy]benzyloxy]phenyl]propionic acid] had a melting point of 157 to 158 °C.

As for `CCOc1ccc(OCc2ccc(OCc3nc(-c4ccccc4)oc3C)cc2)cc1CC(=O)OC` [Example 4, methyl-2-[2-ethoxy-5-[4-[(5-methyl-2-phenyl-4-oxazolyl)methoxy]benzyloxy]phenyl]acetate], the melting point was 82 to 83 °C.

As for `CCOc1ccc(OCc2ccc(OCc3nc(-c4ccccc4)oc3C)cc2)cc1CC(=O)O` [Example 5, 2-[2-ethoxy-5-[4-[(5-methyl-2-phenyl-4-oxazolyl)methoxy]benzyloxy]phenyl]acetic acid], the melting point was 122 to 123 °C.

Compound `COC(=O)Cc1ccc(OCc2ccc(OCc3nc(-c4ccccc4)oc3C)cc2)cc1` [Example 8, methyl 2-[4-[4-[(5-methyl-2-phenyl-4-oxazolyl)methoxy]benzyloxy]phenyl]acetate] had a melting point of 93 to 94 °C.

As for `Cc1oc(-c2ccccc2)nc1COc1ccc(COc2ccc(CC(=O)O)cc2)cc1` [Example 9, 2-[4-[4-[(5-methyl-2-phenyl-4-oxazolyl)methoxy]benzyloxy]phenyl]acetic acid], the melting point was 166 to 167 °C.

For the compound `Cc1oc(-c2ccccc2)nc1COc1ccc(COc2ccccc2CCC(=O)O)cc1` [Example 13, 3-[2-[4-[(5-methyl-2-phenyl-4-oxazolyl)methoxy]benzyloxy]phenyl]propionic acid], the melting point is 98 to 99 °C.

With `COC(=O)Cc1cc(C)ccc1OCc1ccc(OCc2nc(-c3ccccc3)oc2C)cc1` [Example 14, methyl 2-[5-methyl-2-[4-[(5-methyl-2-phenyl-4-oxazolyl)methoxy]benzyloxy]phenyl]acetate], the melting point fell in the range of 80 to 81 °C.

The compound `Cc1oc(-c2ccccc2)nc1COc1ccc(COc2ccc(O)cc2CC(=O)O)cc1` [Example 16, 2-[5-hydroxy-2-[4-[(5-methyl-2-phenyl-4-oxazolyl)methoxy]benzyloxy]phenyl]acetic acid] had a melting point of 194 to 195 °C.

In the case of `COC(=O)Cc1cc(Br)ccc1OCc1ccc(OCc2nc(-c3ccccc3)oc2C)cc1` [Example 19, methyl 2-[5-bromo-2-[4-[(5-methyl-2-phenyl-4-oxazolyl)methoxy]benzyloxy]phenyl]acetate], the melting point was 100 to 101 °C.

On to `Cc1oc(-c2ccccc2)nc1COc1ccc(COc2ccc(Br)cc2CC(=O)O)cc1` [Example 20, 2-[5-bromo-2-[4-[(5-methyl-2-phenyl-4-oxazolyl)methoxy]benzyloxy]phenyl]acetic acid], for which the melting point lay in the range of 162 to 163 °C.

Take `COC(=O)Cc1cc(-c2ccccc2)ccc1OCc1ccc(OCc2nc(-c3ccccc3)oc2C)cc1` [Example 21, methyl 2-[2-[4-[(5-methyl-2-phenyl-4-oxazolyl)methoxy]benzyloxy]-5-phenylphenyl]acetate]: the melting point is 111 to 112 °C.

In the case of `Cc1oc(-c2ccccc2)nc1COc1ccc(COc2ccc(-c3ccccc3)cc2CC(=O)O)cc1` [Example 22, 2-[2-[4-[(5-methyl-2-phenyl-4-oxazolyl)methoxy]benzyloxy]-5-phenylphenyl]acetic acid], the melting point lay within 102 to 103 °C.
